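All cell lines were grown in 96-well plates and treated with compound for 48 hours. GI50 marks 50% less growth. The concentration for full growth arrest is given as TGI.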
tested on: NCI-H460 lung; test: DTP human tumour cell line panel, 48 h

SMILES	GI50 [µM]	TGI [µM]
Nc1c(C(=O)Nc2ccccn2)sc2nc3c(cc12)C(=O)CCC3	0.596	> 100
COc1ccc(Cl)cc1NC(=O)c1ccc(NC2=C(Cl)C(=O)N(Cc3ccccc3)C2=O)cc1	9.41	> 100
Cc1cccc(NC2=C(Cl)C(=O)c3nc(C)ccc3C2=O)c1	1.64	3.82
O=Cc1cc2c(cc1-c1cc3c(cc1C=O)OCO3)OCO2	–	> 100
C/C(=N\NC(N)=O)c1sc(-c2nc(C)c(/C(C)=N/NC(N)=O)s2)nc1C	–	> 100
CN(C)CCNC(=O)Cc1ccccc1Nc1c(Cl)cccc1Cl	–	24.7
COc1cc2c(cc1OCCCN1CCN(CCCOc3cc4c(cc3OC)C(=O)N3CC(F)(F)C[C@H]3C=N4)CC1)N=C[C@@H]1CC(F)(F)CN1C2=O	2.6	15.6
C[N+](C)(C)CC(=O)N/N=C(/Cc1cc(=O)oc2cc(O)ccc12)C(=O)Nc1ccc(Cl)cc1	–	> 100
COc1cccc2c1O/C(=C\c1ccc([N+](=O)[O-])s1)C2=O	4.34	> 100
FC(F)(F)c1ccc2nc(NCc3ccccc3)c(-c3ccccc3)nc2c1	–	> 100
COc1cc(C[P+](c2ccccc2)(c2ccccc2)c2ccccc2)cc(OC)c1OC	–	> 100
C=C(C)[C@@H]1CC[C@]2(CN)CC[C@]3(C)[C@H](CC[C@@H]4[C@@]5(C)CCCNC(C)(C)[C@@H]5CC[C@]43C)[C@@H]12	1.24	2.67
CCCN(CCC)c1c([N+](=O)[O-])cc(C(=O)N(CC)CC)cc1[N+](=O)[O-]	–	60.2
C=C(CN(C)Cc1ccccc1)c1ccc(NC(=O)c2ccc(C(=C)CN(C)Cc3ccccc3)cc2)cc1	97.3	> 100
COC(=N)c1csc(C2OC(CO)C(O)C2O)n1 (stereo not given)	–	> 100
CN1Nc2ccccc2CC1=O	–	> 100
O=C(CNc1ccc(Cl)cc1Cl)Nn1c(-c2ccccc2)nc2ccccc2c1=O	–	30.5
CO[C@@H]1CC[C@]2(C)OC[C@H](C)[C@@H]3C[C@@H](C)[C@@H](OC(C)=O)[C@@H]4[C@H]3[C@@H]2O[C@H]4C[C@@]1(C)O	> 100	> 100

SMILES	GI50 [µM]	TGI [µM]
Oc1oc(C(=C2N=c3ccccc3=N2)c2ccc(Cl)cc2)c(O)c1-c1ccc(Cl)cc1	–	> 100
CSC[C@H](NC(=O)COc1cccc2cnccc12)C(=O)NC(Cc1ccccc1)C(O)C(=O)N1CSC[C@H]1C(=O)NC(C)(C)C (stereo not given in full)	–	> 100
Cc1nc2c(N)ncnc2o1	–	> 100
CCN(Cc1c(F)cccc1OC)c1ccc(CO)c(Cl)c1	0.201	11.7
CCOC(=O)c1c(C)c2c(n1Cc1ccccc1)CSCC2=O	20.4	55.1
CCCCCCCCCCCC[N+]12CC[N+](CCN)(CC1)CC2	–	> 100
C[C@H](CCOc1cccc(CC(=O)O)c1)N(Cc1cccc(C(F)(F)F)c1Cl)CC(c1ccccc1)c1ccccc1	3.9	13.6
O=[N+]([O-])c1cccnc1N=Nc1c(O)[nH]c2ccccc12	–	35.9
O=C1C=C(Nc2ccc(Cl)cc2C(=O)c2ccccc2)c2ccccc2C1=O	–	> 100
O=C1C=C(c2c(O)ccc3ccccc23)c2cc(O)ccc2C1=O	–	44.7
CCN(CCNS(C)(=O)=O)c1ccc(N)c(C)c1	23.2	53.7
O=C(c1ccc([N+](=O)[O-])cc1[N+](=O)[O-])N(/N=C/C=C/c1ccccc1)c1nnc(-c2ccccc2)c(-c2ccccc2)n1	–	> 100
COc1ccc(NC(=O)CSc2nnc(-c3ccc(NC(C)=O)cc3)o2)cc1	–	34
CC(=O)N/C(=C\c1ccccc1/C=C(\NC(C)=O)c1nc2cc(C)c(C)cc2[nH]1)c1nc2cc(C)c(C)cc2[nH]1	–	97.9
NNc1ncnc2nc[nH]c12	5.58	51.6
NCCCn1c2c(c3ccc([N+](=O)[O-])cc3c1=O)C(=O)c1cc(I)ccc1-2	< 0.01	1.31
CN(Cc1cnc2nc(N)nc(N)c2n1)c1ccc(C(=O)N[C@@H](CCS(=O)(=O)O)C(=O)O)cc1	–	> 100

tested on: IGROV1 ovarian; test: DTP human tumour cell line panel, 48 h

SMILES	GI50 [µM]	TGI [µM]
Nc1c(C(=O)Nc2ccccn2)sc2nc3c(cc12)C(=O)CCC3	2.23	> 100
COc1ccc(Cl)cc1NC(=O)c1ccc(NC2=C(Cl)C(=O)N(Cc3ccccc3)C2=O)cc1	> 100	> 100
Cc1cccc(NC2=C(Cl)C(=O)c3nc(C)ccc3C2=O)c1	1.18	2.6
